Measured values as given in article PMC5813235, “Selective inhibition of TRPM2 channel by two novel synthesized ADPR analogues” (Chemical Biology & Drug Design, 2017).
pIC50: −log10 of the molar value.

Biological target: T1, human TRPM2 (Homo sapiens, UniProt O94759)
T1 construct: whole-cell patch clamp
Test: whole-cell patch clamp, current inhibition
Type: cell-based
Conditions: not given

T1 sequence (O94759 whole entry): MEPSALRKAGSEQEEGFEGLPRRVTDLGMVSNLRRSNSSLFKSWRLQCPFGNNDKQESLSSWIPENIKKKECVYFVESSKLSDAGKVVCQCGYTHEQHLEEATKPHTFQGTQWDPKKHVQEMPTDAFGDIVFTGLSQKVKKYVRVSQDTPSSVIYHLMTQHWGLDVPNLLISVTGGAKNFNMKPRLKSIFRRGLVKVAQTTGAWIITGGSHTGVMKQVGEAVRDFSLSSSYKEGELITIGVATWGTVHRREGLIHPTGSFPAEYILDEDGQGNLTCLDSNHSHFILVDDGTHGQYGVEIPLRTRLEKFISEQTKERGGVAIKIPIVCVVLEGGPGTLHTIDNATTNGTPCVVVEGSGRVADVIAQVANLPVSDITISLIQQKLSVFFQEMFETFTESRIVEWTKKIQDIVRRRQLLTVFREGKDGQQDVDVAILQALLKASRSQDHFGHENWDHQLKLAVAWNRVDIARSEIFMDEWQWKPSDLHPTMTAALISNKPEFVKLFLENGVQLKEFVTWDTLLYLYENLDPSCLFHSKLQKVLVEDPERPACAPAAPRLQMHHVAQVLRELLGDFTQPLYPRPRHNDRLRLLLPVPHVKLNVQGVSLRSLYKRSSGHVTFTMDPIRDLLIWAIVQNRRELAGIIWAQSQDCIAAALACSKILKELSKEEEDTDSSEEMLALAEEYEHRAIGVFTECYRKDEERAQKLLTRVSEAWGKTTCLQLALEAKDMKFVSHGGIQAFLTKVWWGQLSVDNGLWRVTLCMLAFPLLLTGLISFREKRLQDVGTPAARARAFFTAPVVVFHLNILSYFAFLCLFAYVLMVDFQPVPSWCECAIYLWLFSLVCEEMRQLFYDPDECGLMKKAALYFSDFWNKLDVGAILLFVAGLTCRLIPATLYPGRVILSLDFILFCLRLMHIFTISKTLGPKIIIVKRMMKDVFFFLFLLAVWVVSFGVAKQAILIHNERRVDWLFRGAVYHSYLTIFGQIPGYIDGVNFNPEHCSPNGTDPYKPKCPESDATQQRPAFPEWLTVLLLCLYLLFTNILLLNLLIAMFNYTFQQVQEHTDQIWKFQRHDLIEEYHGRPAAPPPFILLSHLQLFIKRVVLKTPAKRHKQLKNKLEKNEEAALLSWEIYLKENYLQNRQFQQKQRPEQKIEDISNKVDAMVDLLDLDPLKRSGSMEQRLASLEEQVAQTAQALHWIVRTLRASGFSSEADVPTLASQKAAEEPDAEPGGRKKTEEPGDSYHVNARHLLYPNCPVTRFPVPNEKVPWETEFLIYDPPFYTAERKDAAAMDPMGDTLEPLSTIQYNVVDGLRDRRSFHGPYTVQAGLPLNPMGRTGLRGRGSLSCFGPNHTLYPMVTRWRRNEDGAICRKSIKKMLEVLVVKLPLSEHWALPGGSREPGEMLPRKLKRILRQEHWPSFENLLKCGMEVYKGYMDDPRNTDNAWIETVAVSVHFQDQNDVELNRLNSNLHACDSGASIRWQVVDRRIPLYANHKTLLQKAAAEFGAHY

Compound	pIC50
COC1O[C@H](COP(=O)(O)C(F)(F)P(=O)(O)OC[C@H]2O[C@@H](n3cnc4c(N)nc(Cl)nc43)[C@@H]3OC(C)(C)O[C@@H]32)[C@H]2OC(C)(C)O[C@@H]12 (stereo partly drawn) [7i]	5.24
COC1O[C@H](COP(=O)(O)C(F)(F)P(=O)(O)OC[C@H]2O[C@@H](n3cnc4c(N)nc(Br)nc43)[C@H](O)[C@@H]2O)[C@@H](O)[C@H]1O (stereo partly drawn) [9a, 1″‐O‐methyl‐difluoromethylenediphosphoribose‐2‐bromoadenosine]	< 4.00
COC1O[C@H](COP(=O)(O)C(F)(F)P(=O)(O)OC[C@H]2O[C@@H](n3cnc4c(N)nc(Br)nc43)[C@H](O)[C@@H]2O)[C@H]2OC(C)(C)O[C@@H]12 (stereo partly drawn) [8d, 1″‐O‐methyl‐2″,3″‐O‐isopropylidene‐5′‐difluoromethylenediphosphoribose‐2‐bromoadenosine]	< 4.00
COC1O[C@H](COP(=O)(O)OP(=O)(O)OC[C@H]2O[C@@H](n3cnc4c(N)ncnc43)[C@@H]3OC(C)(C)O[C@@H]32)[C@H]2OC(C)(C)O[C@@H]12 (stereo partly drawn) [7l]	< 4.00
CO[C@@H]1[C@H](O)[C@@H](COP(=O)(O)CP(=O)(O)OC[C@H]2OC(O)[C@H](O)[C@@H]2O)O[C@H]1n1cnc2c(N)ncnc21 (stereo partly drawn) [compound 14, 2′‐methoxy‐5′‐methylenediphoribose adenosine]	< 4.00
CNc1ncnc2c1ncn2[C@@H]1O[C@H](COP(=O)(O)CP(=O)(O)OC[C@H]2OC(OC)[C@@H]3OC(C)(C)O[C@H]23)[C@H]2OC(C)(C)O[C@H]21 (stereo partly drawn) [7f]	< 4.00
COC1O[C@H](COP(=O)(O)CP(=O)(O)OC[C@H]2O[C@@H](n3cnc4c(N)nc(Br)nc43)[C@@H]3OC(C)(C)O[C@@H]32)[C@H]2OC(C)(C)O[C@@H]12 (stereo partly drawn) [7c]	< 4.00
COC1O[C@H](COP(=O)(O)CP(=O)(O)OC[C@H]2O[C@@H](n3cnc4c(N)nc(N)nc43)[C@@H]3OC(C)(C)O[C@@H]32)[C@H]2OC(C)(C)O[C@@H]12 (stereo partly drawn) [7e]	< 4.00
COC1O[C@H](COP(=O)(O)CP(=O)(O)OC[C@H]2O[C@@H](n3cnc4c(N)nc(Cl)nc43)[C@@H]3OC(C)(C)O[C@@H]32)[C@H]2OC(C)(C)O[C@@H]12 (stereo partly drawn) [7b]	< 4.00
COC1O[C@H](COP(=O)(O)C(F)(F)P(=O)(O)OC[C@H]2O[C@@H](n3cnc4c(N)nc(N)nc43)[C@@H]3OC(C)(C)O[C@@H]32)[C@H]2OC(C)(C)O[C@@H]12 (stereo partly drawn) [7k]	< 4.00
COC1O[C@H](COP(=O)(O)C(F)(F)P(=O)(O)OC[C@H]2O[C@@H](n3cnc4c(N)ncnc43)[C@@H]3OC(C)(C)O[C@@H]32)[C@H]2OC(C)(C)O[C@@H]12 (stereo partly drawn) [7h]	< 4.00
COC1O[C@H](COP(=O)(O)CP(=O)(O)OC[C@H]2O[C@@H](n3cnc4c(N)ncnc43)[C@@H]3OC(C)(C)O[C@@H]32)[C@H]2OC(C)(C)O[C@@H]12 (stereo partly drawn) [7a, 1″‐O‐methyl‐2″,2′,3″,3′‐O‐isopropylidene‐5′‐methylenediphoribose adenosine]	< 4.00
COC1O[C@H](COP(=O)(O)CP(=O)(O)OC[C@H]2O[C@@H](n3cnc4c(N)ncnc43)[C@H](O)[C@@H]2O)[C@H]2OC(C)(C)O[C@@H]12 (stereo partly drawn) [8a, 1″‐O‐methyl‐2″,3″‐O‐isopropylidene‐5′‐methylenediphosphoribose adenosine]	5.27
COC1O[C@H](COP(=O)(O)CP(=O)(O)OC[C@H]2O[C@@H](n3cnc4c(N)nc(Cl)nc43)[C@H](O)[C@@H]2O)[C@H]2OC(C)(C)O[C@@H]12 (stereo partly drawn) [8b]	< 4.00
COC1O[C@H](COP(=O)(O)C(F)(F)P(=O)(O)OC[C@H]2O[C@@H](n3cnc4c(N)nc(I)nc43)[C@H](O)[C@@H]2O)[C@@H](O)[C@H]1O (stereo partly drawn) [9b]	< 4.00
COc1nc(N)c2ncn([C@@H]3O[C@H](COP(=O)(O)C(F)(F)P(=O)(O)OC[C@H]4OC(OC)[C@@H]5OC(C)(C)O[C@H]45)[C@H]4OC(C)(C)O[C@H]43)c2n1 (stereo partly drawn) [7j]	< 4.00
COC1O[C@H](COP(=O)(O)C(F)(F)P(=O)(O)OC[C@H]2O[C@@H](n3cnc4c(N)nc(Br)nc43)[C@@H]3OC(C)(C)O[C@@H]32)[C@H]2OC(C)(C)O[C@@H]12 (stereo partly drawn) [7n, 1″‐O‐methyl‐2″,2′,3″,3′‐O‐isopropylidene‐5′‐difluoromethylenediphosphoribose‐2‐bromoadenosine]	< 4.00
COC1O[C@H](COP(=O)(O)CP(=O)(O)OC[C@H]2O[C@@H](n3cnc4c(N)ncnc43)[C@H](OC)[C@@H]2O)[C@H]2OC(C)(C)O[C@@H]12 (stereo partly drawn) [compound 13, 1″‐O‐methyl‐2″,3″‐O‐isopropylidene‐2′‐methoxy‐5′‐methylenediphoribose adenosine]	< 4.00
COC1O[C@H](COP(=O)(O)CP(=O)(O)OC[C@H]2O[C@@H](n3cnc4c(N(C)C)ncnc43)[C@@H]3OC(C)(C)O[C@@H]32)[C@H]2OC(C)(C)O[C@@H]12 (stereo partly drawn) [7g]	< 4.00
COC1O[C@H](COP(=O)(O)C(F)(F)P(=O)(O)OC[C@H]2O[C@@H](n3cnc4c(N)nc(Cl)nc43)[C@H](O)[C@@H]2O)[C@H]2OC(C)(C)O[C@@H]12 (stereo partly drawn) [8c]	< 4.00
COC1O[C@H](COP(=O)(O)C(F)(F)P(=O)(O)OC[C@H]2O[C@@H](n3cnc4c(N)nc(I)nc43)[C@@H]3OC(C)(C)O[C@@H]32)[C@H]2OC(C)(C)O[C@@H]12 (stereo partly drawn) [7o]	< 4.00
COC1O[C@H](COP(=O)(O)CP(=O)(O)OC[C@H]2O[C@@H](n3cnc4c(N)nc(I)nc43)[C@@H]3OC(C)(C)O[C@@H]32)[C@H]2OC(C)(C)O[C@@H]12 (stereo partly drawn) [7m]	< 4.00
COc1nc(N)c2ncn([C@@H]3O[C@H](COP(=O)(O)CP(=O)(O)OC[C@H]4OC(OC)[C@@H]5OC(C)(C)O[C@H]45)[C@H]4OC(C)(C)O[C@H]43)c2n1 (stereo partly drawn) [7d]	< 4.00
COC1O[C@H](COP(=O)(O)C(F)(F)P(=O)(O)OC[C@H]2O[C@@H](n3cnc4c(N)nc(I)nc43)[C@H](O)[C@@H]2O)[C@H]2OC(C)(C)O[C@@H]12 (stereo partly drawn) [8e]	< 4.00

Further lines, results first:

pIC50	Compound
< 4.00	Nc1nc(N)c2ncn([C@@H]3O[C@H](COP(=O)(O)C(F)(F)P(=O)(O)OC[C@H]4OC(O)[C@H](O)[C@@H]4O)[C@@H](O)[C@H]3O)c2n1 (stereo partly drawn) [10k]
< 4.00	Nc1nc(Cl)nc2c1ncn2[C@@H]1O[C@H](COP(=O)(O)C(F)(F)P(=O)(O)OC[C@H]2OC(O)[C@H](O)[C@@H]2O)[C@@H](O)[C@H]1O (stereo partly drawn) [10i]
< 4.00	Nc1nc(Cl)nc2c1ncn2[C@@H]1O[C@H](COP(=O)(O)CP(=O)(O)OC[C@H]2OC(O)[C@H](O)[C@@H]2O)[C@@H](O)[C@H]1O (stereo partly drawn) [10b]
< 4.00	Nc1nc(N)c2ncn([C@@H]3O[C@H](COP(=O)(O)CP(=O)(O)OC[C@H]4OC(O)[C@H](O)[C@@H]4O)[C@@H](O)[C@H]3O)c2n1 (stereo partly drawn) [10e]
< 4.00	Nc1ncnc2c1ncn2[C@@H]1O[C@H](COP(=O)(O)C(F)(F)P(=O)(O)OC[C@H]2OC(O)[C@H](O)[C@@H]2O)[C@@H](O)[C@H]1O (stereo partly drawn) [10h]
< 4.00	Nc1nc(I)nc2c1ncn2[C@@H]1O[C@H](COP(=O)(O)CP(=O)(O)OC[C@H]2OC(O)[C@H](O)[C@@H]2O)[C@@H](O)[C@H]1O (stereo partly drawn) [10m]
< 4.00	CNc1ncnc2c1ncn2[C@@H]1O[C@H](COP(=O)(O)CP(=O)(O)OC[C@H]2OC(O)[C@H](O)[C@@H]2O)[C@@H](O)[C@H]1O (stereo partly drawn) [10f]
< 4.00	Nc1nc(Br)nc2c1ncn2[C@@H]1O[C@H](COP(=O)(O)CP(=O)(O)OC[C@H]2OC(O)[C@H](O)[C@@H]2O)[C@@H](O)[C@H]1O (stereo partly drawn) [10c]
< 4.00	COc1nc(N)c2ncn([C@@H]3O[C@H](COP(=O)(O)CP(=O)(O)OC[C@H]4OC(O)[C@H](O)[C@@H]4O)[C@@H](O)[C@H]3O)c2n1 (stereo partly drawn) [10d]
< 4.00	COc1nc(N)c2ncn([C@@H]3O[C@H](COP(=O)(O)C(F)(F)P(=O)(O)OC[C@H]4OC(O)[C@H](O)[C@@H]4O)[C@@H](O)[C@H]3O)c2n1 (stereo partly drawn) [10j]
< 4.00	Nc1nc(I)nc2c1ncn2[C@@H]1O[C@H](COP(=O)(O)C(F)(F)P(=O)(O)OC[C@H]2OC(O)[C@H](O)[C@@H]2O)[C@@H](O)[C@H]1O (stereo partly drawn) [10o]
< 4.00	CN(C)c1ncnc2c1ncn2[C@@H]1O[C@H](COP(=O)(O)CP(=O)(O)OC[C@H]2OC(O)[C@H](O)[C@@H]2O)[C@@H](O)[C@H]1O (stereo partly drawn) [10g]

Same assay, conditions: compound in intracellular (pipette) solution with 0.1 mM ADPR as activator; room temperature; pH 7.3 inside, 7.4 outside

pIC50	Compound
< 4.00	Nc1ncnc2c1ncn2[C@@H]1O[C@H](COP(=O)(O)CP(=O)(O)OC[C@H]2OC(O)[C@H](O)[C@@H]2O)[C@@H](O)[C@H]1O (stereo partly drawn) [10a, methylenediphosphoribose adenosine]
< 4.00	Nc1nc(Br)nc2c1ncn2[C@@H]1O[C@H](COP(=O)(O)C(F)(F)P(=O)(O)OC[C@H]2OC(O)[C@H](O)[C@@H]2O)[C@@H](O)[C@H]1O (stereo partly drawn) [10n, difluoromethylenediphosphoribose‐2‐bromoadenosine]

Same assay, conditions: compound in intracellular solution with 0.1 mM ADPR; drawn structure is ADPR itself, the channel activator

pIC50	Compound
< 4.00	Nc1ncnc2c1ncn2[C@@H]1O[C@H](COP(=O)(O)OP(=O)(O)OC[C@H]2OC(O)[C@H](O)[C@@H]2O)[C@@H](O)[C@H]1O (stereo partly drawn) [10l]
